This passage reports Kd and IC50 results from ChEMBL document CHEMBL6177956, “Discovery of first-in-class human glycolate oxidase near infrared molecular rotor inhibitors (NIRGOi)” (Eur J Med Chem, 2025).

For test [1], the target named is T1, 2-Hydroxyacid oxidase 2 (Rattus norvegicus, UniProt Q07523).
T1 sequence (Q07523 whole entry): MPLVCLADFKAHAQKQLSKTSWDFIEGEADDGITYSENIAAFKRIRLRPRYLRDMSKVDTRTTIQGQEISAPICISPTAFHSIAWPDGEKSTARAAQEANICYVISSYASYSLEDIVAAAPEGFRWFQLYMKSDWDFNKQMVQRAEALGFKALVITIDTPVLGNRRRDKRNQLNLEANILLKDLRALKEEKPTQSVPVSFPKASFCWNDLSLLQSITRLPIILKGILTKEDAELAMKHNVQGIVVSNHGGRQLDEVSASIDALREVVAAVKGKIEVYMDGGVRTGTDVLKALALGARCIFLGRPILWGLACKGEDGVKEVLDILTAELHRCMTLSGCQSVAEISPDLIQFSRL
Nature of the test: Binding affinity to rat LCHAO by Amplex Red reagent based fluorescence analysis. It is filed as toxicity.

Test [2] concerns the target T1, 2-Hydroxyacid oxidase 2. Kind of test: Inhibition of rat LCHAO using 2-hydroxyoctanoate as substrate incubated for 30 mins by Amplex Red reagent based fluorometric analysis. The test is classed as toxicity.

Turning to `CC1(C)C(/C=C/c2ccc(O)c(C(=O)O)c2)=[N+](CCC(=O)O)c2ccc3ccccc3c21`, the Kd – broadly, the concentration at which binding is half-saturated – in test [1] came to 3.2 µM. Further, half-maximal inhibition in test [2] (IC50) required 36.7 µM.

Turning to `N#CC(C#N)=C1C=C(/C=C/c2ccc(O)c(C(=O)O)c2)Oc2ccccc21`, in test [1], the Kd is > 1000 µM. For the same molecule, the IC50 (commonly the midpoint of a concentration-inhibition curve) in test [2] is > 500 µM.

Take `O=C(O)c1cc(/C=C/C2=CC(=C3C(=O)c4ccccc4C3=O)c3ccccc3O2)ccc1O`: in test [1], the Kd is 462 µM. Besides, the IC50 in test [2] was 248 µM.
